Values joined by “and” are separate entries in the source; they are usually repeats but may differ in a detail not shown here. Equal entries are not always repeated. Where two headings read alike, the source gives them in different places.
Tests used:
[1] = test system: patients with moderate-to-severe chronic plaque psoriasis; assay: Study M04-716 (CHAMPION), 16-week Phase III active- and placebo-controlled trial, PASI 75 response; assay type: in vivo, human; conditions: for PASI 75 response rate at Week 16: observed, Week 16 relative to Baseline
Method: The primary efficacy endpoint was the proportion of subjects achieving at least a 75% reduction in the Psoriasis Area and Severity Index (PASI) score (i.e., ≧PASI 75 response) at Week 16 relative to Baseline (Week 0).
Study M04-716 was a 16-week multicenter, double-blind, and double-dummy study.
PASI scores were assessed prior to the first dose of study drug (Baseline) and at Weeks 1, 2, 4, 8, 12 and 16.
Dose escalation/titration was carried out according to the efficacy and safety criteria defined in the protocol.
In addition, the subjects were candidates for systemic therapy or phototherapy.
The ADA treatment group received 40 mg every-other-week (eow) injections from Week 1, following an 80-mg initial dose. […] Dose escalation was carried out according to the efficacy and safety criteria defined in the study protocol. All study patients received injections as well as oral tablets, regardless of treatment group assignment (double-dummy design) (FIG. 5). Patient outcome was measured using a PASI 75 response: a 75% reduction (improvement) in PASI score at Week 16 compared with the baseline score.

[2] = cited from earlier work
[3] = test system: patients with moderate-to-severe chronic plaque psoriasis; assay: Population PK/PD (exposure-efficacy) modeling with NONMEM and clinical trial simulation of long-term MTX treatment; parameters: species or system human
Description: The PK/PD model was built using a non-linear mixed-effects population modeling (NONMEM) approach with NONMEM software (double precision, Version VI) and a NMTRAN pre-processor. Models were compiled using the Intel Visual Fortran compiler (Version 9) on a dual processor workstation (DELL Precision 530) under the Windows 2000 (Service pack 4) operating system.
All 110 MTX-treated subjects in Study M04-716 were included in the population PK/PD analysis.
All the observed PASI scores over the 16-week period in MTX-treated subjects in Study M04-716 were used.
The amount in the central compartment was scaled by the apparent volume of distribution (V/F).
All subjects were assumed to have the typical PK parameter values (i.e., intersubject and intrasubject variabilities were set to zero).
Several PD models were examined. The first model is an indirect response model with an inhibitory effect (Imax and IC50) of Ce (concentration at an effect compartment) on Kin. Kin is the ‘synthesis rate’ into a compartment where PASI scores reside in. The 2nd model examined was similar to the final PD model (see below), except that the rate into the 3rd compartment is Kin·(Emax/(1+EC50/Cp)), rather than Kin·Cp.
The final PD model is a two-step indirect model (as shown below). […] In this model, Compartments 3 and 4 were added as delay/modulator compartments for triggering the observed PASI response.
Kin and Kout are the rate constants into and out of Compartment 3. […] Kout was set equal to Kin. K40 is the rate constant out of Compartment 4, and it controls the persistence of PASI response. PASI is the predicted PASI score, which equals to the baseline PASI score divided by a factor great than one, and the parameter ‘GAM’ influences the steepness of the functional relationship.
For the PD modeling, exponential error models were used to describe the inter-individual errors on the PD parameters Kin and K40.
The evaluation criteria used to select an appropriate PK/PD model are described below: • 1. […] The OFV is equal to −2 times the maximum logarithm of the likelihood of the data (−2LL). Non-hierarchical models are compared based on the AKAIKE criterion. • 2. The observed and predicted PASI scores from a preferred model were more randomly distributed across the line of unity (a straight line with zero intercept and a slope of one) than those from alternative model(s). • 3.
The first-order conditional estimation (FOCE) with INTERACTION method was employed within NONMEM, and a diagonal structure of the n matrix was assumed.
The final population PK/PD model was validated using a bootstrap method (random resampling with replacement). […]

[4] = fixed in the PK model, from the literature
[5] = two-step indirect response model, Run 18

Compound	PASI75 Response Rate (90% CI) Actual (NRI) ([1]; Week 1)	PASI75 Response Rate (90% CI) Actual (NRI) ([1]; Week 2)	PASI75 Response Rate (90% CI) Actual (NRI) ([1]; Week 4)	PASI75 Response Rate (90% CI) Actual (NRI) ([1]; Week 8)	PASI75 Response Rate (90% CI) Actual (NRI) ([1]; Week 16)	PASI 75 response rate at Week 16 [1]	V/F (apparent volume of distribution), values in the literature ([2]; RA)	CL/F (apparent clearance), value used in NONMEM [2, 4]	Ka (first-order absorption rate constant), value used in NONMEM [2, 4]	V/F (apparent volume of distribution), value used in NONMEM [2, 4]	half-life ([2]; in vivo)	Tmax, values in the literature ([2]; leukemic pediatric patients)	Vss (volume of distribution at steady state), values in the literature ([2]; patient population unspecified)	CL/F (apparent clearance), values in the literature ([2]; patients with psoriasis)	Tmax, values in the literature ([2]; patients with psoriasis)	CL/F (apparent clearance), values in the literature ([2]; patients with rheumatoid arthritis (RA))	simulated PASI 75 response rate at Week 52 greater than that at Week 16 ([3]; difference Week 52 vs Week 16)	K40 = THETA (2), estimate, final PD model [3, 5]	Kin = THETA (1), estimate, final PD model [3, 5]	calculated Tmax ([3]; with CL/F = 3 L/day/kg, V/F = 0.6 L/kg, Ka = 10 day^−1)
CN(Cc1cnc2nc(N)nc(N)c2n1)c1ccc(C(=O)N[C@@H](CCC(=O)O)C(=O)O)cc1 [MTX, methotrexate]	0.0 (0.1, 3.2)	0.0 (0.1, 3.2)	2.7 (0.8, 7.2)	9.1 (5.2, 15.2)	35.5 (28.0, 43.7)	35.5%	0.55 L/kg in RA.^2	0.12 L/h/kg	10 day⁻¹	0.6 L/kg	2 to 3 h	Tmax = 0.67-4 hrs in leukemic pediatric patients.^3	0.4-0.8 L/kg (Vss).^3	12.4 L/h and 10.8 L/h and 11.5 L/h	Tmax = 2 hrs in patients with psoriasis.	2.1 mL/min/kg in patients with rheumatoid	approximately 12%	0.0203 day⁻¹	3.83 day⁻¹	Tmax would be 3.3 hrs,
adalimumab						79.6%														

Reference: US20090271164A1, “PREDICTING LONG-TERM EFFICACY OF A COMPOUND IN THE TREATMENT OF PSORIASIS” (priority 2008, published 2009)
